# Molecular target: T1, Ba/F3 cell EGFR Exon20 ins NPH (Homo sapiens, UniProt P00533, INS773NPH)
# T1 construct: expressed in transfected cells; host or cells: Ba/F3
# Experiment: Ba/F3 cell proliferation suppression, EGFR Exon20 ins NPH
# Format: cell-based
# Settings: GI50 class; Ba/F3 cell line with NPH inserted at Exon20 of EGFR; 72 hours
# Method in brief: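 Growth suppression determined as GI50 following 72 h exposure across 12 concentrations up to 50 um, with viability by luminescent ATP assay (CellTiter-Glo).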
row,Ba/F3 (NPH) Activity,Compound
1,A (GI50 < 50 nM),"C=CC(=O)Nc1cc(Nc2cc(N3OCC[C@@H]3c3ccc(F)c(Cl)c3)ncn2)c(OC)cc1N1CCC(N2C[C@@H]3C[C@H]2CO3)CC1 [compound 716, N-(2-(4-((1S,4S)-2-oxa-5-azabicyclo[2.2.1]heptane-5-yl)piperidine-1-yl)-5-((6-((R)-3-(3-chloro-4-fluorophenyl)isoxazolidine-2-yl)pyrimidine-4-yl)amino)-4-methoxyphenyl) acrylamide]"
2,A (GI50 < 50 nM),"C=CC(=O)Nc1cc(Nc2cc(N3OCC[C@@H]3c3ccc(Cl)cc3)ncn2)c(OC)cc1N1CCC(N2CCOCC2)CC1 [compound 782, N-(5-((6-((R)-3-(4-chlorophenyl)isoxazolidine-2-yl)pyrimidine-4-yl)amino)-4-methoxy-2-(4-morpholinopiperidine-1-yl)phenyl)acrylamide]"
3,A (GI50 < 50 nM),"C=CC(=O)Nc1cc(Nc2cc(N3OCC[C@@H]3c3ccc(C)nc3)ncn2)c(OC)cc1N(C)CCN(C)C [Example 36, N-(2-((2-(dimethylamino)ethyl)(methyl)amino)-4-methoxy-5-((6-((R)-3-(6-methylpyridine-3-yl)isoxazolidine-2-yl)pyrimidine-4-yl)amino)phenyl) acrylamide]"

# The next lines start with the compound.
row,Compound,Ba/F3 (NPH) Activity
1,"C=CC(=O)Nc1cc(Nc2cc(N3OCC[C@@H]3c3ccc(F)c(Cl)c3)ncn2)c(OC)cc1N1CCC(N2C[C@H](C)N(C3CC3)C[C@@H]2C)CC1 [Example 121, N-(5-((6-((R)-3-(3-chloro-4-fluorophenyl)isoxazolidine-2-yl)pyrimidine-4-yl)amino)-2-(4-((2S,5S)-4-cyclopropyl-2,5-dimethylpiperazine-1-yl)piperidine-1-yl)-4-methoxyphenyl) acrylamide]",A (GI50 < 50 nM)
2,"C=CC(=O)Nc1cc(Nc2cc(N3OCC[C@@H]3c3ccc4ccccc4c3)ncn2)c(OC)cc1N1CCC(N2CCOCC2)CC1 [compound 555, N-(4-methoxy-2-(4-morpholinopiperidine-1-yl)-5-((6-((R)-3-(naphthalene-2-yl)isoxazolidine-2-yl)pyrimidine-4-yl)amino)phenyl)acrylamide]",B (50 nM ≤ GI50 < 500 nM)
3,"C=CC(=O)Nc1cc(Nc2cc(N3OCC[C@@H]3c3ccc(F)cc3F)ncn2)c(OC)cc1N1C[C@H]2C[C@@H]1CN2CC [compound 385, N-(5-((6-((R)-3-(2,4-difluorophenyl)isoxazolidine-2-yl)pyrimidine-4-yl)amino)-2-((1R,4R)-5-ethyl-2,5-diazabicyclo[2.2.1]heptane-2-yl)-4-methoxyphenyl) acrylamide]",A (GI50 < 50 nM)
4,"C=CC(=O)Nc1cc(Nc2cc(N3OCC[C@@H]3c3cccc(Cl)c3)ncn2)c(OC)cc1N1CCC(N2CCN(C3CC3)CC2)CC1 [Example 138, N-(5-((6-((R)-3-(3-chlorophenyl)isoxazolidine-2-yl)pyrimidine-4-yl)amino)-2-(4-(4-cyclopropylpiperazine-1-yl)piperidine-1-yl)-4-methoxyphenyl) acrylamide]",A (GI50 < 50 nM)
5,"C=CC(=O)Nc1cc(Nc2cc(N3OCC[C@@H]3c3cccc(Cl)c3F)ncn2)c(OC)cc1N1CCC(N2CCO[C@@H](C)C2)CC1 [compound 356, N-(5-((6-((R)-3-(3-chloro-2-fluorophenyl)isoxazolidine-2-yl)pyrimidine-4-yl)amino)-4-methoxy-2-(4-((S)-2-methylmorpholino)piperidine-1-yl)phenyl) acrylamide]",A (GI50 < 50 nM)
6,"C=CC(=O)Nc1cc(Nc2cc(N3OCC[C@@H]3Cc3ccccc3)ncn2)c(OC)cc1N1CC[C@@H](N(C)C)C1 [compound 964, N-(5-((6-((S)-3-benzylisoxazolidine-2-yl)pyrimidine-4-yl)amino)-2-((R)-3-(dimethylamino)pyrolidine-1-yl)-4-methoxyphenyl) acrylamide]",A (GI50 < 50 nM)

# — patent publication US12157730B2, “Heteroaryl derivative, method for producing same, and pharmaceutical composition comprising same as effective component” (VORONOI INC., priority 2019, dated 2024)
